Results from patent US20030113833A1, “Device for measuring extracellular potential, method of measuring extracellular potential by using the same and apparatus for quickly screening drug provided therewith” (priority 2001, published 2003).

How the values were obtained:
Format in all cases: cell-based
[1] = test system: Neurons prepared from the cerebral cortex of gestation day 17 SD rat embryos
[2] = test system: ion channels of a Lymnaea Stagnalis neuron; experiment: Extracellular recording, average of standard deviations of the electrical signal (Example 3); settings: 0, 0.1, 0.3, 1, 3, 10, 30 and 100 μM in artificial cerebrospinal fluid; 10 seconds of data
Method: The apparatus having the configuration shown in FIG. 13 was used to measure an action of a neuron to the chemical substance Carbachol, where the neuron was prepared from Lymnaea Stagnalis. Carbachol is a chemical substance known as an analog of the neurotransmitter Acetylcholine. Carbachol (manufactured by Sigma) was dissolved in artificial cerebrospinal fluid to concentrations of 0, 0.1, 0.3, 1, 3, 10, 30 and 100 μM. The solutions having these concentrations were used to measure an electrical signal emitted by the neuron. For each Carbachol concentration, time-series data for 10 seconds was obtained from the measurement section (signal source) 101 comprising the sensor substrate, and was sampled at intervals of 100 miliseconds, and the standard deviation of the sampling data was calculated. The average of the standard deviation was plotted in FIG. 17.

[3] = test system: ion channels of a Lymnaea Stagnalis neuron; experiment: Extracellular recording, normal distribution of standard deviations before and after application (Example 4); settings: after applying 50 μM; 0.478 before the application
Description: FIG. 14 is a conceptual diagram showing a configuration of an apparatus for detecting an action of a subject chemical substance on a biological sample according to the present invention. The apparatus is the same as the apparatus of FIG. 13, except that a normal distribution approximation section 103, an average/half-width calculation section 106 and an activity categorization section 109 are employed in place of the average calculation section 105 and the activity calculation section 108. Communications between each section are indicated by a dashed line or a solid line in FIG. 13. […] Note that similar to the apparatus of FIG. 13, the unit standard deviation calculation section 102, the normal distribution approximation section 103, the average/half-width calculation section 106 and the activity categorization section 109 may be representatively software programs which are recorded in a hard disk of a computer. […] Before and after 50 μM-concentration Carbachol was applied to a Lymnaea Stagnalis neuron, signals were obtained from the measurement section (signal source) 101, and the standard deviation of the signals was calculated in a manner similar to that of Example 1. […]

| Compound | frequency at which the noise has a maximal value [1] | noise intensity in the absence of the Ca antagonist relative to that in its presence [1] | average of the standard deviation every 100 miliseconds versus concentration [2] | average of the normal distribution of standard deviation values every 5 miliseconds [3] |
| --- | --- | --- | --- | --- |
| ω-conotoxin GVIA [Ca antagonist] | about 4 Hz | about 1.5 times |  |  |
| C[N+](C)(C)CCOC(N)=O [Carbachol] |  |  | the greater the Carbachol concentration, the greater the average of the standard deviation every 100 miliseconds | 0.703 |
